Test: n vitro cytoprotection assay: HEp-2 cells, (originally derived from tumors grown in irradiated-cortisonised weanling rats that had been injected with epidermoid carcinoma tissue from a person's larynx, but later found to be indistinguishable from HeLa cells by PCR DNA analysis), were used for the culturing of genotype A, “Long” strain RSV. Flasks were inoculated with RSV and viral stocks were collected once cytopathic effect (CPE) was greater than 90%. Viral stocks in 25% sucrose media were snap frozen using liquid nitrogen to increase viral stability. Viral stock titers were quantified by tissue culture infectious dose 50% (TCID50) using 8,000 cells per well and 3-fold viral dilutions across a 96-well plate, cultured for 4 days.Following extensive parameter testing, the final assay is run as follows: HEp-2 cells are seeded into the inner 60 wells of a 96-well plate at 8,000 cells per well in a volume of 50 using Growth Media (DMEM without phenol red, 1% L-Glut, 1% Penn/Strep, 1% nonessential amino acids, 10% FBS). 2-fold serial dilutions of control and test compounds are added to the wells in duplicate in a total volume of 25 μL. Viral stock is then added to the wells in a volume of 25 μL, bringing the total volume of each well to 100 μL. Each 96-well plate has a control column of 6 wells with cells and virus but no compound (negative control, max CPE), a column with cells but no compound or virus (positive control, minimum CPE), and a column with no cells or virus or compound (background plate/reagent control). The control wells with cells but no virus are given an additional 25 uL of growth media containing an equal quantity of sucrose as those wells receiving the viral stock in order to keep consistent in media and volume conditions. The outer wells of the plate are filled with 125 μL of growth media to act as a thermal and evaporative moat around the test wells. Following a 4-day incubation period, the plates are read using ATPlite (50 uL added per well), which quantifies the amount of ATP (a measure of cell health) present in each well. Assay plates are read using the Envision luminometer.

Row | SMILES | EC50 [µM]
1 | O=C1Nc2ccccc2N(c2ccccc2)C[C@@H]1Nc1nnc(-c2ccc(N3CCOCC3)cc2F)o1 | > 5
2 | O=C1Nc2ccccc2N(c2ccccc2)C[C@@H]1Nc1nnc(-c2cccnc2N2CCOCC2)o1 | 3.5
3 | NNC(=O)c1nc(-c2cccnc2)sc1N1CCOCC1 | < 2
4 | O=C1Nc2ccccc2N(c2cc(F)c(F)c(F)c2)C[C@@H]1Nc1nnc(-c2ncc(C(F)(F)F)cc2N2CCOCC2)o1 | > 5
5 | O=C(N[C@H]1CN(c2ccccc2)c2ccccc2NC1=O)c1ccccc1 | > 5
6 | COCCNc1cc(C(F)(F)F)cnc1-c1nnc(N[C@H]2CN(c3ccccc3)c3ccccc3NC2=O)o1 | > 5
7 | Cc1ccc(C(=O)NN)o1 | > 5
8 | O=C1Nc2ccccc2N(c2ccccc2)C[C@@H]1Nc1nnc(-c2ccc(F)cc2)o1 | > 5
9 | O=C1Nc2ccccc2N(c2ccccc2)C[C@@H]1Nc1nnc(-c2cn(C3CCCC3)nc2N2CCOCC2)o1 | < 2
10 | O=C1Nc2ccccc2N(c2ccccc2)C[C@@H]1Nc1nnc(-c2ccccc2)o1 | > 5
11 | O=C1Nc2ccccc2N(c2ccccc2)C[C@@H]1Nc1nnc(-c2nc(C3CC3)sc2N2CCOCC2)o1 | < 2
12 | O=C(Nc1ccccc1)NC1C(=O)Nc2ccccc2N(c2ccccc2)C1=O (stereo not given) | > 5
13 | O=C1Nc2ccccc2N(c2ccccc2)C[C@@H]1Nc1nnc(-c2ncc(C3CC3)cc2N2CCOCC2)o1 | < 2
14 | O=C1Nc2ccccc2N(c2ccccc2)C[C@@H]1Nc1nc2ccccc2o1 | > 5
15 | O=C(Nc1ccccc1)N[C@H]1CN(c2ccccc2)c2ccccc2NC1=O | > 5
16 | O=C(NNC(=S)NC1C(=O)Nc2ccccc2N(c2ccccc2)C1=O)c1ccccc1 (stereo not given) | > 5
17 | NNC(=O)c1cn(-c2ccccn2)nc1N1CCOCC1 | 3.5
18 | NNC(=O)c1ncc(C(F)(F)F)cc1Cl | < 2
19 | O=C(NC1C(=O)Nc2ccccc2N(c2ccccc2)C1=O)c1ccccc1 (stereo not given) | > 5
20 | CCOC(=O)c1nc(C(F)(F)F)sc1N1CCOCC1 | < 2
